Tests used:
kochia = experiment: Test C postemergence; type: in vivo, Kochia scoparia; conditions: for Plant response rating, Kochia: postemergence
Text: (§1) Seeds of plant species selected from blackgrass (Alopecurus myosuroides), ryegrass, Italian (Italian ryegrass, Lolium multiflorum), wheat (winter wheat, Triticum aestivum), galium (catchweed bedstraw, Galium aparine), corn (Zea mays), crabgrass, large (large crabgrass, Digitaria sanguinalis), foxtail, giant (giant foxtail, Setaria faberii), johnsongrass (Sorghum halepense), lambsquarters (Chenopodium album), morningglory (Ipomoea coccinea), nutsedge, yellow (yellow nutsedge, Cyperus esculentus), pigweed (redroot pigweed, Amaranthus retroflexus), ragweed (common ragweed, Ambrosia elation), soybean (Glycine max), barnyardgrass (Echinochloa crus-galli), oilseed rape (Brassica napus), waterhemp (common waterhemp, Amaranthus rudis), oat, wild (wild oat, Avena fatua), kochia (Kochia scoparia), Surinam grass (Brachiaria decumbens), foxtail, green (green foxtail, Setaria viridis), goosegrass (Eleusine indica), bromegrass, downy (downy bromegrass, Bromus tectorum), nightshade (eastern black nightshade, Solanum ptycanthum), cocklebur (common cocklebur, Xanthium strumarium), cupgrass, woolly (woolly cupgrass, Eriochloa villosa), bermudagrass (Cynodon dactylon), sunflower, (common oilseed sunflower, Helianthus annuus), Russian thistle (Salsola kali), and velvetleaf (Abutilon theophrasti) were planted into a blend of loam soil and sand and treated preemergence with test chemicals formulated in a non-phytotoxic solvent mixture which included a surfactant.
(§2) At the same time, plants selected from these crop and weed species and also chickweed (common chickweed, Stellaria media), canarygrass (littleseed canarygrass, Phalaris minor), and deadnettle (henbit deadnettle, Lamium amplexicaule), were planted in pots containing Redi-Earth® planting medium (Scotts Company, 14111 Scottslawn Road, Marysville, Ohio 43041) comprising spaghnum peat moss, vermiculite, wetting agent and starter nutrients and treated with postemergence applications of test chemicals formulated in the same manner. Plants ranged in height from 2 to 18 cm (1- to 4-leaf stage) for postemergence treatments. Treated plants and controls were maintained in a greenhouse for 13 to 15 days, after which time all species were compared to controls and visually evaluated. Plant response ratings, summarized in Table C, are based on a scale of 0 to 100 where 0 is no effect and 100 is complete control. A dash (-) response means no test result.

morningglory = experiment: Test C postemergence; type: in vivo, Ipomoea coccinea; conditions: for Plant response rating, Morningglory: postemergence
Text: as §1, §2

foxtail, giant [1] = experiment: Test A postemergence; type: in vivo, Setaria faberii
Summary of the method: (§3)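 Scoring was visual, on a scale where 100 means complete control and 0 means no effect, comparing treated with untreated plants around 10 days post-application. Compounds in surfactant-containing non-phytotoxic solvent were sprayed onto soil preemergence or onto one- to two-leaf seedlings (2–10 cm) postemergence.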

corn [2] = experiment: Test A postemergence; type: in vivo, Zea mays
Summary of the method: as §3

velvetleaf [3] = experiment: Test A postemergence; type: in vivo, Abutilon theophrasti
Summary of the method: as §3

wheat [4] = experiment: Test A postemergence; type: in vivo, Triticum aestivum
Summary of the method: as §3

wheat [5] = experiment: Test C postemergence; type: in vivo, Triticum aestivum; conditions: postemergence
Text: as §1, §2

foxtail, giant [6] = experiment: Test C postemergence; type: in vivo, Setaria faberii; conditions: for Plant response rating, Foxtail, Giant: postemergence
Text: as §1, §2

velvetleaf [7] = experiment: Test C postemergence; type: in vivo, Abutilon theophrasti; conditions: postemergence
Text: as §1, §2

galium = experiment: Test C preemergence; type: in vivo, Galium aparine
Text: as §1, §2

foxtail, giant [8] = experiment: Test C preemergence; type: in vivo, Setaria faberii
Text: as §1, §2

soybean = experiment: Test C preemergence; type: in vivo, Glycine max
Text: as §1, §2

corn [9] = experiment: Test C preemergence; type: in vivo, Zea mays
Text: as §1, §2

waterhemp = experiment: Test C preemergence; type: in vivo, Amaranthus rudis
Text: as §1, §2

[10] = Postemergence, 31 g ai/ha, scale 0 to 100
[11] = 250 g ai/ha, scale 0 to 100 (0 no effect, 100 complete control)
[12] = 62 g ai/ha, scale 0 to 100, 0 no effect, 100 complete control
[13] = 125 g ai/ha, scale 0 to 100, 0 no effect, 100 complete control
[14] = Postemergence, 1000 g ai/ha, visual rating after approx. 10 days, 0 to 100 scale (0 no effect, 100 complete control)
[15] = Postemergence, 500 g ai/ha, 0 to 100 scale (0 no effect, 100 complete control)
[16] = postemergence, 125 g ai/ha, about 10 days, visual rating on 0 to 100 scale (0 no effect, 100 complete control)
[17] = Preemergence, 4 g ai/ha, scale 0 to 100
[18] = Preemergence, 8 g ai/ha, scale 0 to 100
[19] = Preemergence, 16 g ai/ha, scale 0 to 100
[20] = preemergence, 31 g ai/ha, visual rating, scale 0 to 100 (0 no effect, 100 complete control), 13 to 15 days
[21] = preemergence, 62 g ai/ha, scale 0 to 100 (0 no effect, 100 complete control), 13 to 15 days
[22] = preemergence, 125 g ai/ha, 13 to 15 days, scale 0 to 100, 0 = no effect, 100 = complete control
[23] = preemergence, 250 g ai/ha, scale 0 to 100, 0 is no effect, 100 is complete control

For `CCc1cc(C(=O)NCC(F)(F)F)nn1Cc1cccc(OC(F)(F)F)c1` [Compound 20], which “Kochia plant response rating” value (kochia; [10]) is on record?
Its value is 90.

What about the “Plant response rating, Kochia” value (kochia; [11]) of the same compound?
The value was 98.

And the “Plant response rating, Kochia” value (kochia; [12])?
Its value is 95.

And the “Plant response rating, Kochia” value (kochia; [13])?
The value was 98.

And the “Morningglory plant response rating” value (morningglory; [10])?
Its value is 10.

What about the “Plant response rating, Morningglory” value (morningglory; [11]) of the same compound?
The value was 70.

And the “Plant response rating, Morningglory” value (morningglory; [12])?
Its value is 25.

What about the “Plant response rating, Morningglory” value (morningglory; [13]) of the same compound?
Its value is 60.

What about the “Foxtail, Giant plant response rating” value (foxtail, giant [1]; [14]) of the same compound?
The value was 70.

What about the “Corn plant response rating” value (corn [2]; [14]) of the same compound?
Its value is 30.

And the “Velvetleaf plant response rating” value (velvetleaf [3]; [14])?
Its value is 90.

What about the “Wheat plant response rating” value (wheat [4]; [14]) of the same compound?
The value was 40.

And the “Wheat plant response rating” value (wheat [5]; 62 g ai/ha, scale 0 to 100)?
The value was 15.

And the “Plant response rating, Wheat” value (wheat [5]; [11])?
The value was 25.

What about the “Plant response rating, Wheat” value (wheat [5]; [13]) of the same compound?
Its value is 20.

What about the “Foxtail, Giant plant response rating” value (foxtail, giant [6]; [10]) of the same compound?
The value was 10.

What about the “Plant response rating, Foxtail, Giant” value (foxtail, giant [6]; [11]) of the same compound?
Its value is 15.

And the “Plant response rating, Foxtail, Giant” value (foxtail, giant [6]; [12])?
Its value is 10.

And the “Plant response rating, Foxtail, Giant” value (foxtail, giant [6]; [13])?
The value was 10.

What about the “Velvetleaf plant response rating” value (velvetleaf [7]; 62 g ai/ha, scale 0 to 100) of the same compound?
The value was 45.

What about the “Plant response rating, Velvetleaf” value (velvetleaf [7]; [11]) of the same compound?
The value was 60.

And the “Plant response rating, Velvetleaf” value (velvetleaf [7]; [13])?
Its value is 45.

Which “Foxtail, Giant plant response rating” value (foxtail, giant [1]; [15]) does the source give for `CCOc1cc(C(=O)NCC(F)(F)F)nn1Cc1cc(C(F)(F)F)nn1C` [Compound 140] here?
The value was 90.

And the “Foxtail, Giant plant response rating” value (foxtail, giant [1]; [16])?
Its value is 80.

What about the “Plant response rating, Galium” value (galium; [17]) of the same compound?
The value was 50.

And the “Plant response rating, Galium” value (galium; [18])?
The value was 60.

And the “Plant response rating, Galium” value (galium; [19])?
The value was 98.

And the “Galium plant response rating” value (galium; [20])?
The value was 100.

What about the “Corn plant response rating” value (corn [2]; [15]) of the same compound?
Its value is 80.

What about the “Corn plant response rating” value (corn [2]; [16]) of the same compound?
The value was 50.

What about the “Velvetleaf plant response rating” value (velvetleaf [3]; [15]) of the same compound?
Its value is 80.

And the “Velvetleaf plant response rating” value (velvetleaf [3]; [16])?
Its value is 50.

And the “Plant response rating, Foxtail, Giant” value (foxtail, giant [8]; [17])?
The value was 20.

What about the “Plant response rating, Foxtail, Giant” value (foxtail, giant [8]; [18]) of the same compound?
Its value is 40.

And the “Plant response rating, Foxtail, Giant” value (foxtail, giant [8]; [19])?
Its value is 75.

And the “Foxtail, Giant plant response rating” value (foxtail, giant [8]; [20])?
The value was 70.

And the “Wheat plant response rating” value (wheat [4]; [15])?
Its value is 70.

And the “Wheat plant response rating” value (wheat [4]; [16])?
The value was 40.

And the “Plant response rating, Soybean” value (soybean; [17])?
The value was 10.

What about the “Plant response rating, Soybean” value (soybean; [18]) of the same compound?
The value was 5.

And the “Plant response rating, Soybean” value (soybean; [19])?
The value was 5.

And the “Soybean plant response rating” value (soybean; [20])?
Its value is 25.

What about the “Plant response rating, Corn” value (corn [9]; [17]) of the same compound?
The value was 0.

And the “Plant response rating, Corn” value (corn [9]; [18])?
The value was 0.

And the “Plant response rating, Corn” value (corn [9]; [19])?
The value was 0.

And the “Corn plant response rating” value (corn [9]; [20])?
Its value is 10.

What about the “Plant response rating, Waterhemp” value (waterhemp; [17]) of the same compound?
Its value is 70.

And the “Plant response rating, Waterhemp” value (waterhemp; [18])?
Its value is 70.

And the “Plant response rating, Waterhemp” value (waterhemp; [19])?
The value was 85.

And the “Waterhemp plant response rating” value (waterhemp; [20])?
The value was 95.

For `O=C(NCC(F)(F)F)c1cc(CCF)n(Cc2ccnc(C(F)(F)F)c2)n1` [Compound 175], which “Foxtail, Giant plant response rating” value (foxtail, giant [1]; [15]) is on record?
Its value is 90.

And the “Foxtail, Giant plant response rating” value (foxtail, giant [1]; [16])?
Its value is 80.

And the “Galium plant response rating” value (galium; [20])?
Its value is 85.

What about the “Galium plant response rating” value (galium; [21]) of the same compound?
Its value is 100.

What about the “Plant response rating, Galium” value (galium; [22]) of the same compound?
Its value is 100.

What about the “Galium plant response rating” value (galium; [23]) of the same compound?
The value was 100.

What about the “Corn plant response rating” value (corn [2]; [15]) of the same compound?
Its value is 90.

And the “Corn plant response rating” value (corn [2]; [16])?
The value was 60.

And the “Velvetleaf plant response rating” value (velvetleaf [3]; [15])?
Its value is 80.

What about the “Velvetleaf plant response rating” value (velvetleaf [3]; [16]) of the same compound?
Its value is 60.

And the “Foxtail, Giant plant response rating” value (foxtail, giant [8]; [20])?
The value was 75.

What about the “Foxtail, Giant plant response rating” value (foxtail, giant [8]; [21]) of the same compound?
Its value is 100.

And the “Plant response rating, Foxtail, Giant” value (foxtail, giant [8]; [22])?
Its value is 100.

And the “Foxtail, Giant plant response rating” value (foxtail, giant [8]; [23])?
Its value is 100.

What about the “Wheat plant response rating” value (wheat [4]; [15]) of the same compound?
Its value is 80.

What about the “Wheat plant response rating” value (wheat [4]; [16]) of the same compound?
Its value is 40.

What about the “Soybean plant response rating” value (soybean; [20]) of the same compound?
Its value is 30.

What about the “Soybean plant response rating” value (soybean; [21]) of the same compound?
Its value is 98.

And the “Plant response rating, Soybean” value (soybean; [22])?
Its value is 98.

What about the “Soybean plant response rating” value (soybean; [23]) of the same compound?
Its value is 98.

And the “Corn plant response rating” value (corn [9]; [20])?
The value was 20.

And the “Corn plant response rating” value (corn [9]; [21])?
Its value is 30.

And the “Plant response rating, Corn” value (corn [9]; [22])?
The value was 85.

And the “Corn plant response rating” value (corn [9]; [23])?
Its value is 90.

And the “Waterhemp plant response rating” value (waterhemp; [20])?
The value was 100.

And the “Waterhemp plant response rating” value (waterhemp; [21])?
The value was 100.

What about the “Plant response rating, Waterhemp” value (waterhemp; [22]) of the same compound?
Its value is 100.

And the “Waterhemp plant response rating” value (waterhemp; [23])?
Its value is 100.
